Key:
[1] = tested on: Atopobium-induced colitis in II10−/− mice; test: Atopobium-induced colitis in II10-/- mice under SPF conditions, treated or not with bismuth (colonoscopy, blinded histological inflammation score); type: in vivo, mouse; conditions: A. parvulum-associated II10-/- mice, 6 weeks
From the text: (§1) To test the causative role of H2S-producing microbes in colitis, we assessed whether an H2S scavenger (bismuth) could alleviate Atopobium-induced colitis in II10^−/− mice. […] It should be noted that the intestines of IBD patients also display a similar increased number of lymphoid follicles^15. […] Increased GALT foci in Atopobium-associated mice could lead to an aberrant expression of lymphoid adhesion molecules and unwanted T cell activation towards commensal microbes. To assess the role of these commensal microbes in colitis development, germ-free mice were mono-associated with A. parvulum and kept under gnotobiotic conditions.
Colonic mucosal lavages and/or mucosal biopsies were collected from 157 pediatric subjects (84 Crohn's Disease, 20 Ulcerative Colitis, and 53 controls). […] Reads were quality filtered and QIIME ^23 was used to assign reads into operational taxonomic units (OTUs) against the Greengenes reference set. […] The generated raw data was processed and analyzed by MaxQuant against the decoy Uniport-human database with the protein-group file imported into Persus for statistical analysis. […] The transcript levels of TST, SQRDL and COX4-1 were quantified by RT-qPCR. […] Mouse colonoscopies were performed and histological inflammation was blindly scored as previously described ^25. Mice mucosal cytokines (Cxcl1, II12p40, II1β and II17a) were quantified by RT-qPCR. […]

[2] = tested on: GALT foci of II10−/− mice; test: Number of GALT foci in II10-/- mice associated with A. parvulum, SPF conditions; type: in vivo, mouse; conditions: Atopobium-associated II10-/- mice under SPF conditions; FIG. 4C
Procedure: (§2) Statistical significance was assessed using a Kruskal-Wallis test with a Dunn's post hoc test.
as §1
(§3) To investigate involvement of complex biota and H2S in the development of colitis, we performed two subsequent experiments using 129/SvEv II-10^−/− mice. […] Mice were euthanized after 6 weeks of mono-association. […] Mice were fed with this diet starting 1 week before the colonization with A. parvulum. […] Mice were euthanized after 6 weeks of weekly infection with A. parvulum. […]
(§4) All animal protocols were approved by the Institutional Animal Care and Use Committee of the University of North Carolina at Chapel Hill. […] Histological images were acquired using a DP71 camera and DP Controller 3.1.1.276 (Olympus), and intestinal inflammation was scored as previously described^12. […]

A. parvulum = A. parvulum colonization level in stool of mono-associated II10-/- mice by real-time qPCR; type: in vivo, Atopobium parvulum; conditions: 6 weeks, P=0.0001, FIG. 12B
Procedure: Statistical significance was assessed using a Mann-Whitney U-test.
as §1
To investigate involvement of complex biota and H2S in the development of colitis, we performed two subsequent experiments using 129/SvEv II-10^−/− mice. […] Mice were euthanized after 6 weeks of mono-association. […] Mice were fed with this diet starting 1 week before the colonization with A. parvulum. […] Mice were euthanized after 6 weeks of weekly infection with A. parvulum. […] Mice were fed with this diet starting 1 week before the colonization with A. parvulum.

[3] = tested on: GALT foci of II10−/− mice; test: Number of GALT foci in II10-/- mice mono-associated with A. parvulum, gnotobiotic conditions; type: in vivo, mouse; conditions: germ-free II10-/- mice mono-associated with A. parvulum, FIG. 4C
Procedure: as §2, §1, §3, §4

[4] = tested on: gut microbiota of II10−/− mice; test: Gut microbiota composition of SPF and Atopobium-associated II10-/- mice, treated or not with bismuth (PCA, Table 6); type: in vivo, mouse
From the text: To assess the role of these commensal microbes in colitis development, germ-free mice were mono-associated with A. parvulum and kept under gnotobiotic conditions. […] FIG. 12B). […] GF+bismuth (III) subsalicylate (n=10); 3: […] A. parvulum+bismuth (III) subsalicylate (n=11). Mice were euthanized after 6 weeks of mono-association. […] Mice were fed with this diet starting 1 week before the colonization with A. parvulum. […] SPF+bismuth (III) subsalicylate (n=8); 3: […] A. parvulum+bismuth (III) subsalicylate (n=8). Mice were euthanized after 6 weeks of weekly infection with A. parvulum. […] Mice were fed with this diet starting 1 week before the colonization with A. parvulum.

SMILES: O=C([O-])c1ccccc1[O-].[Bi+3].[OH-] [bismuth, Bismuth (III) subsalicylate]
- inflammatory score ([1]; bismuth 7 g/kg in chow, P=0.007, FIG. 4B): decrease inflammatory score
- colitis as evidenced by colonoscopy visualization ([1]; bismuth (III) subsalicylate 7 g/kg in chow, FIG. 4A): prevented colitis
- GALT formation (number of GALT foci) [2]: did not prevent GALT formation
- A. parvulum colonization level (16S rDNA gene copies per mg of stool) (A. parvulum): reduced colonization level
- GALT neogenesis [3]: prevented GALT neogenesis
- microbiota of Atopobium-associated mice, abundance of butyrate-producers ([4]; Atopobium-associated II10-/- mice, SPF): restores the microbiota of these mice toward a healthier community
- microbiota composition ([4]; SPF and Atopobium-associated II10-/- mice, Table 6): altered the microbiota composition

— patent publication US11104965B2, “Methods for the diagnosis and treatment of inflammatory bowel disease” (priority 2013, dated 2021)
